{"source": "patent US10301255B2", "about": "“Hepatitis B antiviral agents” (Enanta Pharmaceuticals, Inc., priority 2015, dated 2019)", "note": "pEC50: −log10 of the molar value.", "data": [{"tested_on": "not listed separately", "test": "Compound toxicity by ATPlite 1 Step (total ATP levels)", "format": "cell-based", "settings": "human; HepAD38 cells, day of harvest; 50% reduction of total ATP vs no drug controls", "experimental": "(§1) Methods: HepAD38 cells are maintained as previously reported (Ladner et at, Antimicrob. Agents Chemother. 1997, […], 1715). Briefly, cells are passaged upon attaining confluency in DMEM/F12 media in the presence of 10% FBS, Penn/Strep, 250 μg/mL G418, and 1 ug/ml tetracycline. Novel compounds are screened by first washing cells three times with PBS to remove tetracycline, and plating in 96 well plates at 35,000 cells/well. Compounds dissolved in DMSO are then diluted 1:200 into wells containing cells. Five days after compound addition, material is harvested for analysis. For an extended 8 day analysis, cells are plated and treated as described above, but media and compound are refreshed on d2 and d5 post initial treatment.\nAdditionally, on day of harvest, compound toxicity is evaluated by treating cells with ATPlite 1 Step according to the manufacturer's protocol. Compound concentrations that reduce total ATP levels in wells by 50% relative to no drug controls (CC50) are reported; CC50 ranges are as follows: […].", "units": {"CC50": "µM"}, "values": [{"smiles": "O=C(Nc1cc(F)c(F)c(F)c1)c1ccc(Cl)c(C(F)(F)CCCO)c1", "note": "[Compound 1]", "CC50": "< 10"}, {"smiles": "COC(=O)OCCCC(F)(F)c1cc(C(=O)Nc2cc(F)c(F)c(F)c2)ccc1Cl", "note": "[Compound 2]", "CC50": "10 to 30"}, {"smiles": "O=C(Nc1cc(F)c(F)c(F)c1)c1ccc(Cl)c(C(F)(F)CCCF)c1", "note": "[Compound 3]", "CC50": "< 10"}, {"smiles": "CC(F)(CCCO)c1cc(C(=O)Nc2cc(F)c(F)c(F)c2)ccc1Cl", "note": "(stereo not drawn) [Compound 21]", "CC50": "> 30"}]}, {"tested_on": "HBV", "test": "HepAD38 antiviral assay: reduction of viral product accumulation (virion DNA by qPCR; HBsAg/HBeAg ELISA)", "format": "cell-based", "settings": "Hepatitis B virus, 120 h; HepAD38 cells, tetracycline removed; harvest five days after compound addition; 50% reduction of viral product vs no drug controls", "experimental": "as §1\nOn harvest day, virion DNA is obtained by lysing with Sidestep Lysis and Stabilization Buffer and then quantified via quantitative real time PCR. Commercially available ELISA kits are used to quantitate the viral proteins HBsAg (Alpco) or HbeAg (US Biological) by following the manufacturer's recommended protocol after diluting samples to match the linear range of their respective assays. Irrespective of readout, compound concentrations that reduce viral product accumulation in the cell lysates or supernatants by 50% relative to no drug controls (EC50) are reported; EC50 ranges are as follows: A<1 μM; […].", "values": [{"smiles": "O=C(Nc1cc(F)c(F)c(F)c1)c1ccc(Cl)c(C(F)(F)CCCO)c1", "note": "[Compound 1]", "pEC50": "> 6.00"}, {"smiles": "COC(=O)OCCCC(F)(F)c1cc(C(=O)Nc2cc(F)c(F)c(F)c2)ccc1Cl", "note": "[Compound 2]", "pEC50": "5.00 to 6.00"}, {"smiles": "O=C(Nc1cc(F)c(F)c(F)c1)c1ccc(Cl)c(C(F)(F)CCCF)c1", "note": "[Compound 3]", "pEC50": "> 6.00"}, {"smiles": "N#Cc1cc(NC(=O)c2ccc(Cl)c(C(F)(F)CCCO)c2)ccc1Cl", "note": "[Compound 4]", "pEC50": "< 5.00"}, {"smiles": "COc1ccc(NC(=O)c2ccc(Cl)c(C(F)(F)CCCO)c2)cc1C#N", "note": "[Compound 5]", "pEC50": "< 5.00"}, {"smiles": "COc1ccc(NC(=O)c2ccc(Cl)c(C(F)(F)CCCO)c2)cc1C1CC1", "note": "[Compound 6]", "pEC50": "5.00 to 6.00"}, {"smiles": "CCNC(=O)OCCCC(F)(F)c1cc(C(=O)Nc2ccc(Cl)c(C#N)c2)ccc1Cl", "note": "[Compound 7]", "pEC50": "< 5.00"}, {"smiles": "N#Cc1cc(NC(=O)c2ccc(Cl)c(C(F)(F)CCCOC(=O)NCc3ccccc3)c2)ccc1Cl", "note": "[Compound 8]", "pEC50": "< 5.00"}, {"smiles": "N#Cc1cc(NC(=O)c2ccc(Cl)c(C(F)(F)CCCOC(=O)Nc3ccccc3)c2)ccc1Cl", "note": "[Compound 9]", "pEC50": "< 5.00"}, {"smiles": "CC(C)(C)NC(=O)OCCCC(F)(F)c1cc(C(=O)Nc2ccc(Cl)c(C#N)c2)ccc1Cl", "note": "[Compound 10]", "pEC50": "< 5.00"}, {"smiles": "O=C(Nc1ccc(C(F)(F)F)c(C2CC2)c1)c1ccc(Cl)c(C(F)(F)CCCO)c1", "note": "[Compound 11]", "pEC50": "< 5.00"}, {"smiles": "O=C(Nc1ccc(C2CC2)c(Cl)c1)c1ccc(Cl)c(C(F)(F)CCCO)c1", "note": "[Compound 12]", "pEC50": "< 5.00"}, {"smiles": "N#Cc1ccc(NC(=O)c2ccc(Cl)c(C(F)(F)CCCO)c2)cc1F", "note": "[Compound 13]", "pEC50": "< 5.00"}, {"smiles": "N#Cc1ccc(NC(=O)c2ccc(Cl)c(C(F)(F)CCCO)c2)cc1Cl", "note": "[Compound 14]", "pEC50": "< 5.00"}, {"smiles": "O=C(Nc1ccc(F)c(C2CC2)c1)c1ccc(Cl)c(C(F)(F)CCCO)c1", "note": "[Compound 15]", "pEC50": "< 5.00"}, {"smiles": "O=C(Nc1ccc(F)c(C(F)(F)F)c1)c1ccc(Cl)c(C(F)(F)CCCO)c1", "note": "[Compound 16]", "pEC50": "< 5.00"}, {"smiles": "O=C(Nc1ccc(F)c(Cl)c1)c1ccc(Cl)c(C(F)(F)CCCO)c1", "note": "[Compound 17]", "pEC50": "< 5.00"}, {"smiles": "O=C(Nc1ccc(C(F)(F)F)c(Cl)c1)c1ccc(Cl)c(C(F)(F)CCCO)c1", "note": "[Compound 18]", "pEC50": "< 5.00"}, {"smiles": "N#Cc1ccc(NC(=O)c2ccc(Cl)c(C(F)(F)CCCO)c2)cc1C(F)(F)F", "note": "[Compound 19]", "pEC50": "< 5.00"}, {"smiles": "OCCCC(F)(F)c1cc(-c2nc(-c3ccc(F)c(Br)c3)c[nH]2)ccc1Cl", "note": "[Compound 20]", "pEC50": "< 5.00"}, {"smiles": "CC(F)(CCCO)c1cc(C(=O)Nc2cc(F)c(F)c(F)c2)ccc1Cl", "note": "(stereo not drawn) [Compound 21]", "pEC50": "< 5.00"}, {"smiles": "O=C(Nc1cc(F)c(F)c(F)c1)c1ccc(Cl)c(C(O)CCCO)c1", "note": "(stereo not drawn) [Compound 22]", "pEC50": "< 5.00"}, {"smiles": "O=C(Nc1cc(F)c(F)c(F)c1)c1ccc(Cl)c(C(F)CCCO)c1", "note": "(stereo not drawn) [Compound 23]", "pEC50": "< 5.00"}]}]}
